Assay results taken from paper PMC7761982, “FDA-Approved Drugs with Potent In Vitro Antiviral Activity against Severe Acute Respiratory Syndrome Coronavirus 2” (Pharmaceuticals, 2020).
pIC50: −log10 of the molar value. Where a name gives a salt, the structure may show the parent alone. Read-outs that look alike come from different tables or passages of the source.

Columns and labels:
[1] = system: NRC-03-nhCoV; assay: microbe, parasite or virus in culture; type: cell-based, SARS-CoV-2; settings: for pIC50: read-out: IC50 (NRC-03-nhCoV); for IC50: Severe acute respiratory syndrome coronavirus 2, Vero C1008, negative log of the IC50 value against SARS-CoV-2, read-out: pIC50 (converted)
[2] = in vitro; settings: African green monkey, CC50 (Vero-E6)
[3] = system: Vero-E6 cells
[4] = Severe acute respiratory syndrome coronavirus 2, Vero C1008, 72 h, Vero-E6 cells, 72 h, crystal violet, reduction of virus-induced CPE by 50%
[5] = half maximal cytotoxic concentration, MTT assay, Vero-E6 cells
[6] = Vero-E6 cells, 72 h, crystal violet, reduction of virus-induced CPE by 50%
[7] = read-out: CC50 (Vero-E6), half maximal cytotoxic concentration, MTT assay, Vero-E6 cells
[8] = Severe acute respiratory syndrome coronavirus 2, Vero C1008, Vero-E6 cells, 72 h, crystal violet, reduction of virus-induced CPE by 50%

Compound	pIC50 [1, 4]	CC50 [2, 5]	further results
CC(=O)Oc1ccccc1C(=O)O [Acetyl Salicylic acid “Aspirin”, Acetyl Salicylic acid]	4.92	1260 µM	
NCC[C@H](O)C(=O)N[C@@H]1C[C@H](N)[C@@H](O[C@H]2O[C@H](CN)[C@@H](O)[C@H](O)[C@H]2O)[C@H](O)[C@H]1O[C@H]1O[C@H](CO)[C@@H](O)[C@H](N)[C@H]1O [Amikacin sulphate]			pIC50 [1, 6]: 4.77; CC50 [3, 7]: 2460 µM
CC1(C)S[C@@H]2[C@H](NC(=O)[C@H](N)c3ccc(O)cc3)C(=O)N2[C@H]1C(=O)O [Amoxicillin]	4.79	615 µM	
CC1(C)S[C@@H]2[C@H](NC(=O)Cc3ccccc3)C(=O)N2[C@H]1C(=O)O [Benzathine penicillin]			pIC50 [1, 6]: 4.80; CC50 [3, 7]: 728 µM
CCN1CCN(C(=O)N[C@@H](C(=O)N[C@@H]2C(=O)N3C(C(=O)O)=C(CSc4nnnn4C)CS[C@H]23)c2ccc(O)cc2)C(=O)C1=O [Cefoperazone]	4.91	69 µM	
CO/N=C(\C(=O)N[C@@H]1C(=O)N2C(C(=O)O)=C(COC(C)=O)CS[C@H]12)c1csc(N)n1 [Cefotaxime]	4.37	3160 µM	
CC(C)(O/N=C(\C(=O)N[C@@H]1C(=O)N2C(C(=O)[O-])=C(C[n+]3ccccc3)CS[C@H]12)c1csc(N)n1)C(=O)O [Ceftazidime]	4.34	5550 µM	
CO/N=C(\C(=O)N[C@@H]1C(=O)N2C(C(=O)O)=C(CSc3nc(=O)c(=O)[nH]n3C)CS[C@H]12)c1csc(N)n1 [Ceftriaxone]		446 µM	pIC50 [1, 8]: 4.79
Cc1ccc(-c2cc(C(F)(F)F)nn2-c2ccc(S(N)(=O)=O)cc2)cc1 [Celecoxib]	4.89	140 µM	IC50 [1]: 12.9 µM
CC1=C(C(=O)O)N2C(=O)[C@@H](NC(=O)[C@H](N)c3ccccc3)[C@H]2SC1 [Cephalexin]	4.88		
O=C(N[C@H](CO)[C@H](O)c1ccc([N+](=O)[O-])cc1)C(Cl)Cl [Chloramphenicol]	4.77	33.9 µM	CC50 [3, 7]: 33.9 µM
CN(C)CCC(c1ccc(Cl)cc1)c1ccccn1 (stereo not drawn) [Chlorpheniramine maleate]	5.44	466 µM	
CC(C)C(=O)OCC(=O)[C@@]12O[C@H](C3CCCCC3)O[C@@H]1C[C@H]1[C@@H]3CCC4=CC(=O)C=C[C@]4(C)[C@H]3[C@@H](O)C[C@@]12C [Ciclesonide]	5.38	120 µM	
O=C(O)c1cn(C2CC2)c2cc(N3CCNCC3)c(F)cc2c1=O [Ciprofloxacin]	4.21		
CCC[C@@H]1C[C@@H](C(=O)N[C@@H]([C@H]2O[C@H](SC)[C@H](O)[C@@H](O)[C@H]2O)[C@H](C)Cl)N(C)C1 [Clindamycin]	4.80		pIC50 [1, 6]: 4.80
C[C@@H]1C[C@H]2[C@@H]3CCC4=CC(=O)C=C[C@]4(C)[C@@]3(F)[C@@H](O)C[C@]2(C)[C@@]1(O)C(=O)CO [Dexamethasone]	3.91	1900 µM	
O=C(O)Cc1ccccc1Nc1c(Cl)cccc1Cl [Diclofenac sodium]	4.02	138 µM	
C[C@H]1c2cccc(O)c2C(=O)C2=C(O)[C@]3(O)C(=O)C(C(N)=O)=C(O)[C@@H](N(C)C)[C@@H]3[C@@H](O)[C@@H]21 [Doxycycline]	5.29	636 µM	IC50 [1]: 5.13 µM
Cc1onc(-c2c(F)cccc2Cl)c1C(=O)N[C@@H]1C(=O)N2[C@@H]1SC(C)(C)[C@@H]2C(=O)O [Flucloxacillin]	3.80	966 µM	
CCC(=O)O[C@]1(C(=O)SCF)[C@H](C)C[C@H]2[C@@H]3C[C@H](F)C4=CC(=O)C=C[C@]4(C)[C@@]3(F)[C@@H](O)C[C@@]21C [Fluticasone Propionate]	5.77	32 µM	

Compound	pIC50 [1, 4]	CC50 [2, 5]	further results
COc1ccc(C[C@@H](C)NC[C@H](O)c2ccc(O)c(NC=O)c2)cc1 [Formoterol Fumarate]			pIC50 [1, 6]: 4.14; CC50 [3]: 569 µM
C[C@]12CCC(=O)C=C1CC[C@@H]1[C@@H]2[C@@H](O)C[C@@]2(C)[C@H]1CC[C@]2(O)C(=O)CO [Hydrocortisone]	5.15	614 µM	
CC(C)Cc1ccc(C(C)C(=O)O)cc1 (stereo not drawn) [Ibuprofen]	4.05	1170 µM	
COc1ccc2c(c1)c(CC(=O)O)c(C)n2C(=O)c1ccc(Cl)cc1 [Indomethacin]	5.07	672 µM	
O=C(c1ccccc1)c1ccc2n1CCC2C(=O)O (stereo not drawn) [Ketorolac Tromethamine]	3.81	2040 µM	
C[C@H]1COc2c(N3CCN(C)CC3)c(F)cc3c(=O)c(C(=O)O)cn1c23 [Levofloxacin]	4.86	2160 µM	
CC(=O)NC[C@H]1CN(c2ccc(N3CCOCC3)c(F)c2)C(=O)O1 [Linezolid]	4.79	816 µM	
Cc1cnc(NC(=O)C2=C(O)c3ccccc3S(=O)(=O)N2C)s1 [Meloxicam]	4.91	262 µM	
Cc1c(N(C)CS(=O)(=O)O)c(=O)n(-c2ccccc2)n1C [Metamizole sodium]			pIC50 [1, 6]: 4.82; CC50 [3, 7]: 948 µM
C[C@H]1C[C@@H]2[C@H]([C@@H](O)C[C@@]3(C)[C@H]2CC[C@]3(O)C(=O)CO)[C@@]2(C)C=CC(=O)C=C12 [Methylprednisolone]	4.04	3340 µM	
CC(C)(O)c1ccccc1CC[C@@H](SCC1(CC(=O)O)CC1)c1cccc(/C=C/c2ccc3ccc(Cl)cc3n2)c1 [Montelukast]			CC50 [2]: 9.86 µM
COc1c(N2C[C@@H]3CCCN[C@@H]3C2)c(F)cc2c(=O)c(C(=O)O)cn(C3CC3)c12 [Moxifloxacin]	4.91	2240 µM	
c1ccc2c(CC3=NCCN3)cccc2c1 [Naphazoline]	5.02	636 µM	
O=C1CN(/N=C/c2ccc([N+](=O)[O-])o2)C(=O)N1 [Nitrofurantoin]			pIC50 ([1]; Severe acute respiratory syndrome coronavirus 2, Vero C1008, 72 h): 4.79; CC50 [2]: 599 µM
C[C@@H]1[C@H](O)[C@@H](C)/C=C/C=C/CC/C=C/C=C/C=C/C=C/C(O[C@H]2O[C@H](C)[C@@H](O)[C@H](N)[C@@H]2O)CC2O[C@](O)(CC(O)C(O)CCC(O)CC(O)CC(O)CC(=O)O[C@H]1C)CC(O)C2C(=O)O (stereo partly drawn) [Nystatin]			pIC50 [1, 6]: 3.79; CC50 [3, 7]: 183 µM
CC(=O)Nc1ccc(O)cc1 [Paracetamol]		4980 µM	
CN1C(C(=O)Nc2ccccn2)=C(O)c2ccccc2S1(=O)=O [Piroxicam]	5.09	1800 µM	IC50 [1]: 8.13 µM
OCc1cc(C(O)CNCCCCCCOCCCCc2ccccc2)ccc1O (stereo not drawn) [Salmeterol]		4.1 µM	pIC50 [1, 8]: 5.82
Neomycin			pIC50 [1, 6]: 4.74; CC50 [3, 7]: 833 µM
